Data: patent US11034648B2, “Cystobactamide derivatives” (priority 2017, dated 2021)
Values after ≈ are worked out from the molar mass of the structure shown.

Key:
[1] = system: P. aeruginosa ESBL 2; assay: MIC, microbroth dilution susceptibility assay (Table 2b); assay type: cell-based; settings: Pseudomonas aeruginosa, ESBL2, larger panel
Method: (§1) Cystobactamid derivatives synthesized were tested against relevant Gram negative and positive bacteria of clinical interest. Experimental procedures used for the biological characterization of the compounds are the same as previously described in WO 2016/082934.
(§2) Bacterial strains used in susceptibility assays (minimum inhibitory concentration, MIC) were either part of our internal strain collection or purchased from the German Collection of Microorganisms and Cell Cultures (Deutsche Sammlung von Mikroorganismen und Zellkulturen, DSMZ) and the American Type Culture Collection (ATCC). The susceptible E. coli strain (WT) and fluoroquinolone-resistant mutants E. coli WT-3 and WT-III were kindly provided by Prof Dr. P. Heisig, Pharmaceutical Biology and Microbiology, University of Hamburg, Germany. The efflux-deficient strain P. aeruginosa ΔmexAB was kindly provided by Prof Dr. S. Häußler, Institute for Molecular Bacteriology, TWINCORE, Hannover, Germany. All compounds were prepared as DMSO stocks and MIC values were determined in standard microbroth dilution assays in 96-well MTPs as described in Baumann et al., Angew Chem Int Ed Engl. 2014; 53(52):14605-9. In brief, overnight cultures of bacteria were diluted in either tryptic soy broth (TSB: 1.7% peptone casein, 0.3% peptone soymeal, 0.25% glucose, 0.5% NaCl, 0.25% K2HPO4; pH 7.3; S. pneumoniae and E. faecalis) or cation-adjusted Müller-Hinton Broth (BBL™, BD; all other bacteria) and adjusted to 10^4-10^6 cfu/mL. Bacteria were grown in the presence of the derivatives in serial dilution for approx. 16 h at 30-37° C. MIC values were determined and were defined as the antibiotic concentration at which no visual growth of bacteria was observed.

[2] = system: E. cloacae; assay: as above; assay type: cell-based; settings: Enterobacter cloacae, larger panel
Method: as §1, §2

[3] = system: K. pneumoniae; assay: as above; assay type: cell-based; settings: Klebsiella pneumoniae, larger panel
Method: as §1, §2

[4] = system: P. vulgaris; assay: as above; assay type: cell-based; settings: Proteus vulgaris, larger panel
Method: as §1, §2

[5] = system: E. aerogenes; assay: as above; assay type: cell-based; settings: Klebsiella aerogenes, larger panel
Method: as §1, §2

[6] = system: S. epidermidis; assay: as above; assay type: cell-based; settings: Staphylococcus epidermidis, larger panel
Method: as §1, §2

[7] = system: S. marcescens; assay: as above; assay type: cell-based; settings: Serratia marcescens, larger panel
Method: as §1, §2

[8] = system: P. mirabilis; assay: as above; assay type: cell-based; settings: Proteus mirabilis, larger panel
Method: as §1, §2

[9] = system: P. aeruginosa ESBL 1; assay: as above; assay type: cell-based; settings: Pseudomonas aeruginosa, ESBL1, larger panel
Method: as §1, §2

[10] = system: E. faecalis; assay: as above; assay type: cell-based; settings: Enterococcus faecalis, larger panel
Method: as §1, §2

[11] = system: A. baumannii; assay: as above; assay type: cell-based; settings: Acinetobacter baumannii, larger panel
Method: as §1, §2

[12] = system: C. freundii; assay: as above; assay type: cell-based; settings: Citrobacter freundii, larger panel
Method: as §1, §2

[13] = system: E. coli WT-III [marRΔ74bp]; assay type: cell-based; settings: fluoroquinolone-resistant mutant; Table 2a
Method: as §1, §2

[14] = system: E. coli WT DSM-1116; assay: MIC, microbroth dilution susceptibility assay; assay type: cell-based; settings: Escherichia coli, DSM1116; small panel, Tables 1a/1b; no visual growth after approx. 16 h; read-out: MIC E. coli WT DSM-1116
Procedure, shortened: (§3)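 Overnight cultures were diluted in cation-adjusted Müller-Hinton broth to 10^4-10^6 cfu/mL and grown with serially diluted compound (from DMSO stocks) for approx. 16 h at 30-37° C. MIC is the lowest concentration with no visible bacterial growth.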

[15] = system: E. cloacae DSM-30054; assay: MIC, microbroth dilution susceptibility assay; assay type: cell-based; settings: Enterobacter cloacae, DSM30054; large panel, Table 2a
Procedure, shortened: as §3

[16] = system: P. vulgaris DSM-2140; assay: MIC, microbroth dilution susceptibility assay; assay type: cell-based; settings: Proteus vulgaris, DSM2140; large panel, Table 2a
Procedure, shortened: as §3

[17] = system: E. coli WT; assay: MIC, microbroth dilution susceptibility assay; assay type: cell-based; settings: Escherichia coli
Procedure, shortened: as §3

[18] = system: P. mirabilis DSM-2140; assay: MIC, microbroth dilution susceptibility assay; assay type: cell-based; settings: Proteus mirabilis, DSM2140; large panel, Table 2a
Procedure, shortened: as §3

[19] = system: K. pneumoniae DSM-30104; assay: MIC, microbroth dilution susceptibility assay; assay type: cell-based; settings: Klebsiella pneumoniae, DSM30104; large panel, Table 2a
Procedure, shortened: as §3

[20] = system: S. epidermidis DSM-28765; assay: MIC, microbroth dilution susceptibility assay; assay type: cell-based; settings: Staphylococcus epidermidis, DSM28765; large panel, Table 2a
Procedure, shortened: as §3

[21] = system: C. freundii DSM-30039; assay: MIC, microbroth dilution susceptibility assay; assay type: cell-based; settings: Citrobacter freundii, DSM30039; large panel, Table 2a
Procedure, shortened: as §3

[22] = system: E. aerogenes DSM-30053; assay: MIC, microbroth dilution susceptibility assay; assay type: cell-based; settings: Klebsiella aerogenes, DSM30053; large panel, Table 2a
Procedure, shortened: as §3

[23] = system: S. aureus Newman; assay: MIC, microbroth dilution susceptibility assay; assay type: cell-based; settings: Staphylococcus aureus, NEWMAN; small panel, Tables 1a/1b; read-out: MIC S. aureus Newman
Procedure, shortened: as §3

[24] = system: S. aureus ATCC-29213; assay: MIC, microbroth dilution susceptibility assay; assay type: cell-based; settings: Staphylococcus aureus, ATCC29213; large panel, Table 2a
Procedure, shortened: as §3

[25] = system: E. faecalis ATCC-29212; assay: MIC, microbroth dilution susceptibility assay; assay type: cell-based; settings: Enterococcus faecalis, ATCC29212; large panel, Table 2a; TSB
Procedure, shortened: as §3

[26] = system: P. aeruginosa WT PA14; assay: MIC, microbroth dilution susceptibility assay; assay type: cell-based; settings: Pseudomonas aeruginosa, PA14, small panel, Tables 1a/1b; read-out: MIC P. aeruginosa WT PA14
Procedure, shortened: as §3

[27] = system: S. marcescens DSM-30121; assay: MIC, microbroth dilution susceptibility assay; assay type: cell-based; settings: Serratia marcescens, DSM30121; large panel, Table 2a
Procedure, shortened: as §3

[28] = system: S. pneumoniae DSM-20566; assay: MIC, microbroth dilution susceptibility assay; assay type: cell-based; settings: Streptococcus pneumoniae, DSM20566; large panel, Table 2a; TSB
Procedure, shortened: as §3

[29] = system: A. baumannii DSM-30008; assay: MIC, microbroth dilution susceptibility assay; assay type: cell-based; settings: Acinetobacter baumannii, DSM30008; large panel, Table 2a
Procedure, shortened: as §3

[30] = system: P. aeruginosa DSM-46316; assay: MIC, microbroth dilution susceptibility assay; assay type: cell-based; settings: Pseudomonas aeruginosa, DSM46316; large panel, Table 2a
Procedure, shortened: as §3

[31] = system: P. aeruginosa DSM-24600; assay: MIC, microbroth dilution susceptibility assay; assay type: cell-based; settings: Pseudomonas aeruginosa, DSM24600; large panel, Table 2a
Procedure, shortened: as §3

[32] = system: E. coli WT-3 [gyrA(S83L,D87G)]; assay: microbe, parasite or virus in culture; assay type: cell-based; settings: Escherichia coli, read-out: MIC E. coli WT-3 [gyrA(S83L,D87G)]
Procedure, shortened: as §3

[33] = system: E. coli ΔtolC; assay: microbe, parasite or virus in culture; assay type: cell-based; settings: Escherichia coli, 16 h, read-out: MIC E. coli ΔtolC, small panel, Tables 1a/1b; no visual growth after approx. 16 h
Procedure, shortened: as §3

[34] = system: P. aeruginosa ΔmexAB; assay: microbe, parasite or virus in culture; assay type: cell-based; settings: Pseudomonas aeruginosa, 16 h, read-out: MIC P. aeruginosa ΔmexAB, efflux-deficient strain; small panel, Tables 1a/1b
Procedure, shortened: as §3

[35] = target: T1, E. coli gyrase (Escherichia coli, UniProt P0AES4+P0AES6); assay: E. coli gyrase supercoiling (sc) assay; assay type: biochemical; settings: supercoiling assay kit, agarose gel quantification; read-out: Ec gyrase sc IC50
T1 construct: purchased Inspiralis
Method: The target activity on E. coli gyrase was assessed as described in Baumann et al., Angew Chem Int Ed Engl. 2014; 53(52):14605-9 using a commercial supercoiling (sc) assay kit from Inspiralis according to the manufacturer's instructions. The samples were separated on 0.8% (w/v) agarose gels and relaxed and supercoiled plasmid was visualized by ethidium bromide staining. Half-inhibitory concentrations (IC50) were calculated after image analysis and quantification (ImageJ) based on sigmoidal curve fitting (OriginPro).

Compound	MIC [1]	MIC [2]	MIC [3]	MIC [4]	MIC [5]	MIC [6]	MIC [7]	MIC [8]	MIC [9]	MIC [10]	MIC [11]	MIC [12]	MIC E. coli WT-III [marRΔ74bp] [13]	MIC [14]	MIC [15]	MIC [23]	MIC [26]	MIC [32]	MIC [33]	MIC [34]	other results
CC(C)Oc1c(NC(=O)c2ccc(NC(=O)[C@H](CC(N)=O)NC(=O)c3ccc(NC(=O)c4ccc(C#N)cc4)cc3)cc2)ccc(C(=O)Nc2ccc(C(=O)O)cc2)c1O [Compound 44, (S)-4-(4-(4-(4-amino-2-(4-(4-cyanobenzamido)benzamido)-4-oxobutanamido)benzamido)-2-hydroxy-3-isopropoxybenzamido)benzoic acid]	4 µg/mL (≈ 4.93 µM)	0.25 µg/mL (≈ 0.308 µM)	0.5 µg/mL (≈ 0.616 µM)	0.25 µg/mL (≈ 0.308 µM)	0.06 µg/mL (≈ 0.0739 µM)	< 0.03 µg/mL	> 64 µg/mL	> 64 µg/mL	4 µg/mL (≈ 4.93 µM)	0.5 µg/mL (≈ 0.616 µM)	1 µg/mL (≈ 1.23 µM)	< 0.03 µg/mL	0.25 µg/mL (≈ 0.308 µM)	0.5 µg/mL (≈ 0.616 µM)	0.25 µg/mL (≈ 0.308 µM)	0.25 µg/mL (≈ 0.308 µM)	2 µg/mL (≈ 2.46 µM)	0.13 µg/mL (≈ 0.16 µM)	0.06 µg/mL (≈ 0.0739 µM)	0.25 µg/mL (≈ 0.308 µM)	MIC [16]: 0.25 µg/mL (≈ 0.308 µM); MIC ([17]; large panel, Table 2a): 0.25 µg/mL (≈ 0.308 µM); MIC ([17]; larger panel, Table 2b): 0.25 µg/mL (≈ 0.308 µM); MIC [18]: 64 µg/mL (≈ 78.8 µM); MIC [19]: 0.5 µg/mL (≈ 0.616 µM); MIC [20]: 0.06 µg/mL (≈ 0.0739 µM); MIC [21]: < 0.03 µg/mL; MIC [22]: 1 µg/mL (≈ 1.23 µM); MIC [24]: 0.5 µg/mL (≈ 0.616 µM); MIC [25]: 0.5 µg/mL (≈ 0.616 µM); MIC [27]: > 64 µg/mL; MIC [28]: 0.13 µg/mL (≈ 0.16 µM); MIC [29]: 1 µg/mL (≈ 1.23 µM); MIC [30]: 2 µg/mL (≈ 2.46 µM); MIC [31]: > 64 µg/mL
C/C(=C\c1ccc(O)cc1)C(=O)Nc1ccc(C(=O)N[C@@H](CC(N)=O)C(=O)Nc2ccc(C(=O)Nc3ccc(C(=O)Nc4ccc(C(=O)O)cc4)c(O)c3OC(C)C)cc2)cc1 [Compound 53, (S,E)-4-(4-(4-(4-amino-2-(4-(3-(4-hydroxyphenyl)-2-methylacrylamido)benzamido)-4-oxobutanamido)benzamido)-2-hydroxy-3-isopropoxybenzamido)benzoic acid]	–	–	–	–	–	–	–	–	–	–	–	–	0.06 µg/mL (≈ 0.0712 µM)	0.25 µg/mL (≈ 0.297 µM)	> 64 µg/mL	0.25 µg/mL (≈ 0.297 µM)	1 µg/mL (≈ 1.19 µM)	0.06 µg/mL (≈ 0.0712 µM)	0.06 µg/mL (≈ 0.0712 µM)	0.25 µg/mL (≈ 0.297 µM)	MIC [16]: 0.13 µg/mL (≈ 0.154 µM); MIC ([17]; large panel, Table 2a): 0.13 µg/mL (≈ 0.154 µM); MIC [18]: 2 µg/mL (≈ 2.37 µM); MIC [19]: > 64 µg/mL; MIC [20]: 0.25 µg/mL (≈ 0.297 µM); MIC [21]: 0.13 µg/mL (≈ 0.154 µM); MIC [22]: 1 µg/mL (≈ 1.19 µM); MIC [24]: 0.5 µg/mL (≈ 0.593 µM); MIC [25]: 0.5 µg/mL (≈ 0.593 µM); MIC [27]: 64 µg/mL (≈ 75.9 µM); MIC [28]: 2 µg/mL (≈ 2.37 µM); MIC [29]: 0.25 µg/mL (≈ 0.297 µM); MIC [30]: 2 µg/mL (≈ 2.37 µM); MIC [31]: > 64 µg/mL
CO[C@@H](C(N)=O)[C@H](NC(=O)c1ccc(NC(=O)c2ccc(C#N)cc2)cc1)C(=O)Nc1ccc(C(=O)Nc2ccc(C(=O)Nc3ccc(C(=O)O)cc3)c(O)c2OC(C)C)cc1 [Compound 109, 4-(4-(4-((2S,3R)-4-amino-2-(4-(4-cyanobenzamido)benzamido)-3-methoxy-4-oxobutanamido)benzamido)-2-hydroxy-3-isopropoxybenzamido)benzoic acid]	1 µg/mL (≈ 1.19 µM)	> 64 µg/mL	8 µg/mL (≈ 9.5 µM)	0.125 µg/mL (≈ 0.148 µM)	2 µg/mL (≈ 2.38 µM)	< 0.03 µg/mL	> 64 µg/mL	4 µg/mL (≈ 4.75 µM)	2 µg/mL (≈ 2.38 µM)	0.125 µg/mL (≈ 0.148 µM)	1 µg/mL (≈ 1.19 µM)	< 0.03 µg/mL	–	< 0.03 µg/mL	–	< 0.03 µg/mL	0.5 µg/mL (≈ 0.594 µM)	0.25 µg/mL (≈ 0.297 µM)	< 0.03 µg/mL	< 0.03 µg/mL	MIC ([17]; larger panel, Table 2b): 2 µg/mL (≈ 2.38 µM); IC50 [35]: 400 nM
